The text below walks through data of patent US20240398783A1, “Compounds and Pharmaceutical Compositions Comprising Inhibitors of Amyloid Peptide Interactions with Glycosaminoglycans, Methods of Treatment and Use Thereof” (Gismo Therapeutics, Inc., priority 2021, published 2024).

Structures can show the parent of a compound that is named as a salt.

The target in the first test is Alpha-Synuclein Protofibril binding to purified human brain membranes (Homo sapiens, UniProt P37840). Kind of test: Inhibition of protofibrillar alpha-synuclein binding to purified human brain cell membranes (ELISA). The following applies: Alpha-Synuclein/Membrane Activity (IC-50), alpha-synuclein protofibrils. The method, then: Purified human brain cell membranes were prepared by differential centrifugation as follows. Five grams of frozen human brain postmortem tissue (obtained from University of Kentucky Alzheimer's Disease Center Tissue Bank) was homogenized in 50 ml HEPES-Buffered sucrose (0.32M sucrose, 4 mM HEPES pH7.4, protease inhibitors) with a motor driven glass-teflon homogenizer. After removing nuclear and cell debris by centrifugation of homogenates at 1,000×g for 10 min at 4 degree Celsius, post-nuclear supernatant was centrifuged at 100,000×g for 30 minutes to yield the crude membrane pellet. Crude membrane pellet was re-suspended in 0.32M sucrose, then centrifuged again at 100,000×g for 30 minutes to yield washed membrane pellet. Membrane pellet was resuspended in sterile PBS (pH7.4), quickly frozen, and kept in aliquots at −80 degrees Celsius. This preparation contains human brain cell membranes. Protein concentration was measured with BCA protein assay kit (Pierce Cat. No. 23227). Purified brain membranes were diluted to 0.01 mg/ml in PBS (pH 7.4) and then added to a 96 well polystyrene ELISA plate (NUNC Cat. No. 449824; 100 μl per well). Plates were incubated Over Night (ON) at 4 degrees Celsius. Following the incubation, the plate was washed consecutively, by immersion, with de-ionized water and PBS (pH 7.4). The ELISA plate was then blocked with nonfat milk (2%, 200 μl per well) for 2 hours at Room Temperature (RT). Following blocking, the plate was washed with de-ionized water then PBS (pH 7.4). GBAPs were dissolved and diluted in PBS (pH 6.5, supplemented with 0.1% BSA) at desired concentrations, added to the ELISA plates coated with brain membranes (100 μl per well) and incubated for 2 hours at RT with gentle shaking. Following incubation, the plate was washed with de-ionized water and three times with PBS (pH 6.5) plus Tween. Bound GBAP was detected by a monoclonal antibody specific for that GBAP, followed by incubation with secondary antibody conjugated to horseradish peroxidase (HRP). Antibody was diluted in PBS (pH6.5 supplemented with 1% BSA). Following each incubation with antibody, the plate was washed with de-ionized water and three times with PBS (pH6.5) wash buffer containing 0.1% Tween. The peroxidase substrate chromogen, TMB (Dako Cat. No. S1599) was added (100 μl per well) to the ELISA plate and incubated at room temperature. After 5 minutes ELISA Stop Solution (hydrochloric acid 1N, sulfuric acid 3N) was added (100 μl per well) to stop the peroxidase catalyzed colorimetric reaction. The Optical Density of the samples was measured at 450 nm using an ELISA plate reader (BioTek Synergy H1). Following color development, the % inhibition compared to control was determined. IC-50s were calculated using GraphPad Prism software.
The assay was performed as described in Example 49, with the following modifications. Following to coating the plates with human brain membranes, plates were washed as described. The compounds were dissolved in DMSO at 10 mM final concentration and further diluted prior to assay. DMSO concentration in the screening well was up to 2%. Individual compounds were co-incubated with alpha-synuclein on plates coated with brain membranes. Protofibrillar Alpha-synuclein were prepared as described in Example 45. Protofibrillar Alpha-synuclein diluted in PBS (pH 6.5, supplemented with BSA, 0.1%) was added to the ELISA plate (100 μl per well) and incubated for 2 hours at RT with gentle shaking. Following the incubation, the plate was washed with de-ionized water and three times with PBS (pH 6.5) plus Tween. Bound alpha-synuclein was detected by Anti-Alpha-synuclein Monoclonal Antibody 211 (Santa Cruz Cat. No. sc-12767), followed by secondary anti-IgG antibody conjugated to HRP (R&D System, Cat. No. HAF007). Following to color development with TMB, as described in Example 49, the Optical Density of the samples was measured at 450 nm using an ELISA plate reader. […]
(In general: An ELISA detects its analyte on a solid surface through an enzyme-linked reagent.)
As for `C/C(=N\Nc1ncnc2cc(Cl)ccc12)c1ccc(-n2cnc(C)c2C)nc1` [Compound 16, 7-chloro-4-(2-(1-(6-(4,5-dimethyl-1H-imidazol-1-yl)pyridin-3-yl)ethylidene)hydrazineyl)quinazoline phosphate], the IC50 worked out at 3.25 µM. For `COc1cc2nccc(N/N=C/c3ccc(-n4ccnc4)c(OC)c3)c2cc1OC` [Compound 13, (E)-4-(2-(4-(1H-imidazol-1-yl)-3-methoxybenzylidene)hydrazineyl)-6,7-dimethoxyquinoline phosphate], the IC50 turned out to be 4.03 µM.

Consider `Cc1ncn(-c2ccc(/C=N\Nc3ncnc4cc(Cl)ccc34)cn2)c1C` [Compound 15, 7-chloro-4-(2-((6-(4,5-dimethyl-1H-imidazol-1-yl)pyridin-3-yl)methylene)hydrazineyl)quinazoline hydrochloride], for which the IC50 amounted to 3.06 µM. The same measure, in the same setting: then `Clc1ccc2c(Nc3ccc(-n4cncn4)nc3)ncnc2c1` [Compound 34, N-(6-(1H-1,2,4-triazol-1-yl)pyridin-3-yl)-7-chloroquinazolin-4-amine phosphoric acid salt], with 4.38 µM.

Turning to `C[N+](C)(C)Cc1ccc(/C=N\Nc2ccnc3ccc(Cl)cc23)cc1` [Compound 4, (Z)-1-(4-((2-(6-chloroquinolin-4-yl)hydrazineylidene)methyl)phenyl)—N,N,N-trimethylmethanaminium iodide], the IC50 was found to be 10.7 µM. On the same count and under the same terms, the figure for `Cc1ncn(-c2ccc(Nc3ncnc4cc(Cl)ccc34)cn2)c1C` [Compound 25, 7-chloro-N-(6-(4,5-dimethyl-1H-imidazol-1-yl)pyridin-3-yl)quinazolin-4-amine] is 3.4 µM; for `Clc1ccc2c(N/N=C/c3ccc(-n4ccnc4)nc3)ccnc2c1` [Compound 14, (E)-4-(2-((6-(1H-imidazol-1-yl)pyridin-3-yl)methylene)hydrazineyl)-7-chloroquinoline hydrochloride] it is 6.51 µM; for `CC(=NNc1ccnc2cc(Cl)ccc12)c1ccc(-n2ccnc2)cc1` [Compound 36, 4-(2-(1-(4-(1H-imidazol-1-yl)phenyl)ethylidene)hydrazineyl)-7-chloroquinoline phosphate] it is 9.46 µM. For `C/C(=N\Nc1nncc2cc(Cl)ccc12)c1ccc(-n2cc(C)nc2C)nc1` [Compound 24, (E)-6-chloro-1-(2-(1-(6-(2,4-dimethyl-1H-imidazol-1-yl)pyridin-3-yl)ethylidene)hydrazineyl)phthalazine], the IC50 came out at 4.03 µM. The same measure, in the same setting: then `Clc1ccc2c(Nc3ccc(-n4cncn4)nc3)ccnc2c1` [Compound 44, N-(6-(1H-1,2,4-triazol-1-yl)pyridin-3-yl)-7-chloroquinolin-4-amine], with 22.3 µM. `C/C(=N\Nc1ncnc2cc(Cl)ccc12)c1ccc(-n2cc[n+](C)c2)nc1` [Compound 17, (E)-1-(5-(1-(2-(7-chloroquinazolin-4-yl)hydrazineylidene)ethyl)pyridin-2-yl)-3-methyl-1H-imidazol-3-ium iodide phosphoric acid salt]: the IC50 worked out at 13.1 µM. As to `Fc1ccc2c(N/N=C/c3ccc(CN4CCOCC4)cc3)ccnc2c1` [Compound 6, (E)-4-(4-((2-(7-fluoroquinolin-4-yl)hydrazono)methyl)benzyl)morpholine], the IC50 stood at 3.36 µM. In the case of `CN1CCN(Cc2ccc(/C=N/Nc3ccnc4cc(Cl)ccc34)cc2)CC1` [Compound 7, (E)-7-chloro-4-(2-(4-((4-methylpiperazin-1-yl)methyl)benzylidene)hydrazinyl)quinolone], the IC50 was determined as 42.1 µM. As for `Clc1ccc2c(N/N=C/c3ccc(-n4cccn4)cc3)ccnc2c1` [Compound 3, (E)-4-((E)-(4-(1H-pyrazol-1-yl)benzylidene)hydrazono)-7-chloro-1,4-dihydroquinoline], the IC50 came out at 7.34 µM. On the same count and under the same terms, the figure for `Clc1ccc2c(N/N=C/c3ccc(-n4ccnc4)cc3)ccnc2c1` [Compound 38, 4-(2-(4-(1H-imidazol-1-yl)benzylidene)hydrazineyl)-7-chloroquinoline dihydrochloride] is 2.79 µM. For the compound `CCN1CCN(c2ccc(Nc3ccnc4cc5ccccc5cc34)cc2)CC1` [Compound 39, N-(4-(4-ethylpiperazin-1-yl)phenyl)benzo[g]quinolin-4-amine], the IC50 worked out at 45.8 µM. Turning to `CC(=NNc1ccnc2cc(Cl)ccc12)c1ccc(-n2cnc(C)c2C)nc1` [Compound 22, 7-chloro-4-(2-(1-(6-(4,5-dimethyl-1H-imidazol-1-yl)pyridin-3-yl)ethylidene)hydrazineyl)quinoline], the IC50 was found to be 10.6 µM. In the case of `Cc1ncn(-c2ncc(Nc3ncnc4cc(Cl)ccc34)cc2O)c1C` [Compound 40, 5-((7-chloroquinazolin-4-yl)amino)-2-(4,5-dimethyl-1H-imidazol-1-yl)pyridin-3-ol phosphoric acid salt], the IC50 stood at 34.5 µM.

The same test, now with this note: alpha-synuclein protofibrils, read-out: Alpha-Synuclein/Membrane Activity (IC-50).
For `C/C(=N\Nc1ncnc2cc(F)ccc12)c1ccc(-n2cnc(C)c2C)nc1` [Compound 21, (E)-4-(2-(1-(6-(4,5-dimethyl-1H-imidazol-1-yl)pyridin-3-yl)ethylidene)hydrazineyl)-7-fluoroquinazoline], the IC50 is 1.8 µM. On to `C/C(=N\Nc1ncnc2cc(Cl)ccc12)c1ccc(-n2cc(C)nc2C)nc1` [Compound 18, (E)-7-chloro-4-(2-(1-(6-(2,4-dimethyl-1H-imidazol-1-yl)pyridin-3-yl)ethylidene)hydrazineyl)quinazoline phosphoric acid salt], for which the IC50 was 3.73 µM. Regarding `CC(=NNc1ncnc2cc(Cl)ccc12)c1ccnc(-n2cnc(C)c2C)c1` [Compound 28, 7-chloro-4-(2-(1-(2-(4,5-dimethyl-1H-imidazol-1-yl)pyridin-4-yl)ethylidene)hydrazineyl)quinazoline], the IC50 stood at 3.17 µM. Same read-out and setting: the figure for `C/C(=N\Nc1ncnc2cc(Cl)ccc12)c1ccc(-n2cc(C)nc2C)nc1` [Compound 27, (E)-7-chloro-4-(2-(1-(6-(2,4-dimethyl-1H-imidazol-1-yl)pyridin-3-yl)ethylidene)hydrazineyl)quinazoline hydrochloride] is 7.31 µM; for `Clc1ccc2c(Nc3ccc(-n4ccnc4)nc3)ncnc2c1` [Compound 41, N-(6-(1H-imidazol-1-yl)pyridin-3-yl)-7-chloroquinazolin-4-amine] it is 5.8 µM. Regarding `Cc1cc(-n2ccnc2)ccc1/C=N/Nc1ccnc2cc(Cl)ccc12` [Compound 1, (E)-4-((E)-(4-(1H-imidazol-1-yl)-2-methylbenzylidene)hydrazono)-7-chloro-1,4-dihydroquinoline], the IC50 amounted to 10.1 µM.
